# Measurements: patent US5434132A, “Neuropeptide antagonists” (Imperial Cancer Research Technology, Ltd., priority 1988, dated 1995)
# Where two headings read alike, the source gives them in different places. Non-standard residues stand in square brackets, D forms with d. Residues, ends and D or L forms follow the SMILES beside them.
# Columns and labels:
# bombesin/GRP receptor [1] = target: T1, bombesin/GRP receptor (Mus musculus, UniProt P21729); test: 125I-GRP binding to membrane preparations of Swiss 3T3 cells; design: species or system murine
# T1 construct: Membrane protein (150 μg) prepared from Swiss 3T3 cells as described above; endogenous in cells; host or cells: Swiss 3T3 cells; membrane-enriched fraction prepared with 5 mM Mg2+
# Description: Membrane preparation: Cultures in roller bottles were washed twice with 150 ml phosphate buffered saline (PBS) (0.14M NaCl, 5 mM KCl, 0.01M Na2 HPO4, 1.8 mM KH2 PO4; pH 7.2) at room temperature. The cells were then harvested at 4° C. by scraping into ice cold PBS containing 5 mM MgCl2, 1 mM [ethylenebis(oxyethylenenitrilo)]tetraacetic acid (EGTA), 1 mg/ml bacitracin, 10 ug/ml aprotonin, 1 mg/ml soybean trypsin inhibitor and 50 μM phenylmethylsulphonyl fluoride. All subsequent steps were carried out at 4° C. The cells were pelleted by centrifugation at 750 x g for 10 minutes and resuspended 5×10^6 /ml in solution A containing 50 mM 4-(2-Hydroxyethyl)-1-piperazineethanesulfonic acid (Hepes), 5 mM MgCl2, 1 mM EGTA, 1 mg/ml bacitracin, 10 μg/ml aprotonin, 1 mg/ml soybean trypsin inhibitor and 50 μM phenylmethylsulfonyl fluoride, adjusted to pH 7.4 with NaOH at 4° C. Cells were then disrupted using a Dounce homogeniser (A pestle) 75 strokes. The homogenate was centrifuged at 500 x g for 10 minutes to remove nuclear material and intact cells and the supernatant was centrifuged again at 30000 x g for 30 minutes. The resulting pellet, representing a membrane-enriched preparation was resuspended at a protein concentration of 5 to 10 mg/ml in solution A and stored in liquid nitrogen. For experiments, membranes were thawed and diluted to a concentration of 1 mg/ml with solution A.
# Receptor binding assay: Binding assays were carried out in a total volume of 100 ul in binding medium containing 50 mM Hepes, 5 mM MgCl2, 1 mg/ml bacitracin and 1% bovine serum albumin (BSA), adjusted to pH 7.4 with NaOH, unless otherwise indicated. […] Non-specific binding was subtracted from the total binding to obtain specific binding. The membranes were incubated for either 10 minutes at 37° C. or 30 minutes: at 15° C. as indicated.
# The binding reactions were terminated at the specified times by rapid filtration on GF/B glass fibre filters (Whatmann, 1.0 μm pore size). Each filter was washed five times with 5 ml of PBS containing 1% BSA at 4° C. (15 s total time) using a Millipore filtration apparatus. Before the addition of membranes the filters were soaked for 24 hours in 5% polyethylenimine at 4° C. and washed with 5 ml of PBS containing 1% BSA immediately prior to use. […] Radioactivity was determined with a Beckmann γ-counter.
# When 1n[(Beq - Bt)/(BoLo - Beq Bt)]is plotted as a function of time k1 can be determined from the slope by the following relation k1 =slope x [Beg/(Beg^2 - BoLo)](36) where Bo and Lo are the initial concentrations of receptor and ligand respectively. Bt is the concentration of receptor-ligand complex at time t and Beg is its concentration at equilibrium. Equation (1) takes into account the decrease in free ligand concentration that occurs during the binding reaction.
# The first order rate constant of dissociation was determined from the slope of the line obtained by plotting ln(Bt/Beg) as a function of time.
# The reactions were terminated and specific binding determined as described in "Experimental Procedures".
# Swiss 3T3 cells [2] = tested on: Swiss 3T3 cells
# Swiss 3T3 cells [3] = conditions: references 4,12,13; cited from earlier work
# vasopressin receptor = target: T2, vasopressin receptor (Mus musculus, UniProt Q62463); conditions: references 4,12,13; cited from earlier work
# T2 construct: endogenous in cells; host or cells: Swiss 3T3 cells
# [4] = tested on: small cell lung cancer (SCLC) cell lines; test: Growth in vitro of small cell lung cancer (SCLC) cell lines; conditions: 5 of 5 cell lines tested: H69, H82, H128, H417 and UCH25
# Mr 75,000-85,000 protein = target: T3, Mr 75,000-85,000 protein (Mus musculus, UniProt P21729); test: Chemical cross-linking (EGS) of 125I-GRP to the Mr 75,000-85,000 protein in Swiss 3T3 membranes; type: binding, murine
# T3 construct: Membrane protein (150 μg) prepared from Swiss 3T3 cells as described above; endogenous in cells; host or cells: Swiss 3T3 cells; membrane-enriched fraction prepared with 5 mM Mg2+
# Description: BSA was omitted from all solutions used in the cross-linking studies. At the end of the incubation the membranes were centrifuged at 1000 rpm for 1 minute in a MSE microfuge at room n temperature. The pellets were then resuspended in cross-linking medium containing 4 mM of the cross-linking reagent (EGS) and incubated at 37° C. or 15° C. for 5 minutes or 15 minutes respectively. The reaction was terminated by centrifugation for 1 minute followed by one wash with cross-linking medium and centrifugation. Samples were solubilised in 0.20 ml of 2× sample buffer, (0.2 M Tris-HCl pH 6.8, 10% (w/v) glycerol, 6% sodium dodecyl sulphate (SDS) (w/v), 4% β-mercaptoethanol (v/v), and 2 mM EDTA), immediately heated to 100° C. for 10 minutes and analysed by one dimensional electrophoresis.
# SDS-Polyacrylaaide Gel glectrophoresis: Slab gel electrophoresis was performed using 8% acrylamide in the separating gel and 4% in the stacking gel and 0.1% SDS (37). After electrophoresis gels were stained, desrained and dried down onto paper for autoradiography with Fuji x-ray film. Dried gels were exposed for 2-4 days at -70° C. Autoradiograms were scanned using an LKB ultrascan XL densitometer; and the incorporation of radioactivity into the Mr 75,000-85,000 band was quantified using the Ultroscan XL internal digital integrator.
# Following incubation at 37° C. for 10 minutes the membranes were pelleted by centrifugation and chemical cross-linking carried out as described in "Experimental Procedures" using 4 mM EGS. The samples were analyzed by SDS-PAGE and scanning densitometry of the autoradiograms as described in "Experimental Procedures".
# bombesin/GRP receptor [5] = target: T1, bombesin/GRP receptor; conditions: previously published; cited from earlier work
# [6] = 0.5 nM 125I-GRP, 15° C., 30 minutes
# [7] = 10 min, read-out: 125I-GRP affinity labelling of the Mr 75,000-85,000 protein
# [8] = addition at 1μM, 0.5 nM 125I-GRP, 37° C., 10 minutes, None 305 ± 9, mean±SEM, n=3
# T3 sequence (P21729 whole entry): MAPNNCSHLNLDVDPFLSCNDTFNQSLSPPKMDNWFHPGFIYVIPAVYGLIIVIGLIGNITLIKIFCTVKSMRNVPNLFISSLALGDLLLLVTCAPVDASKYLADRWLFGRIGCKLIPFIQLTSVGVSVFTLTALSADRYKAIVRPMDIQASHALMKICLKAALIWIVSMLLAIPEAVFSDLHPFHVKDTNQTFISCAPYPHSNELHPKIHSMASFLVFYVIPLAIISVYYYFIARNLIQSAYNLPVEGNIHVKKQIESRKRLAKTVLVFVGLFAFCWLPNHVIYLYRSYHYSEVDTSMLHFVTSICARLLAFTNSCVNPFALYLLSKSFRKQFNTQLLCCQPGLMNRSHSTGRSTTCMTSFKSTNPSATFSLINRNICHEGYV
# T1 sequence (P21729 whole entry): as above
# T2 sequence (Q62463 whole entry): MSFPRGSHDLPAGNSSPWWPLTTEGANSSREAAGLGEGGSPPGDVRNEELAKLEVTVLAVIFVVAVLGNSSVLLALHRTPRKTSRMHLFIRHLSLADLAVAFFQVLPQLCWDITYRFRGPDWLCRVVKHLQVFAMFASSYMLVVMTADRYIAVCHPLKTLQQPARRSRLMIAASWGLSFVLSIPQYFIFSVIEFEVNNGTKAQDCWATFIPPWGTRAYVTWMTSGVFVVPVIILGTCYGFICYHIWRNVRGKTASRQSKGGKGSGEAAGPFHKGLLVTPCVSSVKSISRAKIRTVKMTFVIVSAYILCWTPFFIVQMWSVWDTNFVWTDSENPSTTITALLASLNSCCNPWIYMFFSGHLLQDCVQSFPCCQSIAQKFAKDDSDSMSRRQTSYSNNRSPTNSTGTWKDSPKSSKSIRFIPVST
compound,measurement,setting,value
"CC(C)C[C@H](NC(=O)[C@H](CC(C)C)NC(=O)[C@@H](Cc1c[nH]c2ccccc12)NC(=O)[C@H](Cc1ccccc1)NC(=O)[C@@H](Cc1c[nH]c2ccccc12)NC(=O)[C@H](CCC(N)=O)NC(=O)[C@H](CCC(N)=O)NC(=O)[C@@H]1CCCN1C(=O)[C@H](CCCCN)NC(=O)[C@H]1CCCN1C(=O)[C@H](N)CCCNC(=N)N)C(N)=O [antagonist A, D-Arg-D-Pro-Lys-Pro-Gln-Gln-D-Tro-Phe-D-Trp-Leu-Leu-NH2] (H-[dR][dP]KPQQ[dW]F[dW]LL-NH2)",IC50,bombesin/GRP receptor [1]; [6],38 µM
same,IC50,Swiss 3T3 cells [2],90 µM
same,inhibition of vasopressin-stimulated DNA synthesis,Swiss 3T3 cells [3],inhibit
same,inhibition of [3H]vasopressin binding,vasopressin receptor,inhibit
same,concentrations effective in inhibiting growth of SCLC,[4],50 to 150 µM
litorin,inhibition of specific binding of 125I-GRP to membrane preparations,bombesin/GRP receptor [1]; concentration-dependent manner,inhibited
same,"125I-GRP affinity labelling of the Mr 75,000-85,000 protein","Mr 75,000-85,000 protein; addition at 100 nM, 0.5 nM 125I-GRP, 37° C., 10 minutes, None 100",3 ± 1 % of maximum
CSCC[C@H](NC(=O)[C@H](Cc1ccccc1)NC(=O)[C@H](Cc1cnc[nH]1)NC(=O)CNC(=O)[C@@H](NC(=O)[C@H](C)NC(=O)[C@H](Cc1c[nH]c2ccccc12)NC(=O)[C@H](CC(C)C)NC(=O)[C@H](CC(N)=O)NC(=O)CN)[C@@H](C)O)C(N)=O [neuromedin B],IC50,bombesin/GRP receptor [1],0.18 µM
same,remaining activity at 1 µM,"Mr 75,000-85,000 protein; [7]",7 ± 2%
CSCC[C@H](NC(=O)[C@H](CC(C)C)NC(=O)[C@H](Cc1cnc[nH]1)NC(=O)CNC(=O)[C@@H](NC(=O)[C@H](C)NC(=O)[C@H](Cc1c[nH]c2ccccc12)NC(=O)[C@H](CCC(N)=O)NC(=O)[C@H](CC(N)=O)NC(=O)CNC(=O)[C@H](CC(C)C)NC(=O)[C@H](CCCN=C(N)N)NC(=O)[C@H](CCC(N)=O)NC(=O)[C@@H]1CCC(=O)N1)C(C)C)C(N)=O [bombesin],specific binding of 125I-GRP to membranes,bombesin/GRP receptor [1],7 ± 0.2 fmole/mg protein
same,remaining activity at 0.1 µM,"Mr 75,000-85,000 protein; [7]",5 ± 1%
"NC(=O)CC[C@@H]1NC(=O)[C@H](Cc2ccccc2)NC(=O)[C@H](Cc2ccc(O)cc2)NC(=O)[C@@H](N)CSSC[C@@H](C(=O)N2CCC[C@H]2C(=O)N[C@@H](CCCN=C(N)N)C(=O)NCC(N)=O)NC(=O)[C@H](CC(N)=O)NC1=O [Vasopressin, vasopressin]",specific binding of 125I-GRP to membranes,bombesin/GRP receptor [1]; [8],353 ± 10 fmole/mg protein
same,remaining activity at 1 µM,"Mr 75,000-85,000 protein; [7]",102 ± 1%
CSCC[C@H](NC(=O)[C@H](CC(C)C)NC(=O)[C@H](Cc1cnc[nH]1)NC(=O)CNC(=O)[C@@H](NC(=O)[C@H](C)NC(=O)[C@@H](N)Cc1c[nH]c2ccccc12)C(C)C)C(N)=O [bombesin (8-14)],IC50,bombesin/GRP receptor [1],4 µM
same,remaining activity at 10 µM,"Mr 75,000-85,000 protein; [7]",5 ± 2%
Insulin: insulin purchased from Sigma,specific binding of 125I-GRP to membranes,"bombesin/GRP receptor [1]; addition at 1.5 μM, 0.5 nM 125I-GRP, 37° C., 10 minutes, None 305 ± 9",332 ± 6 fmole/mg protein
same,"125I-GRP affinity labelling of the Mr 75,000-85,000 protein","Mr 75,000-85,000 protein; addition at 1.5 μM, 0.5 nM 125I-GRP, 37° C., 10 minutes, None 100",113 ± 3 % of maximum
substance K,specific binding of 125I-GRP to membranes,bombesin/GRP receptor [1]; [8],314 ± 5 fmole/mg protein
PDGF: Recombinant platelet derived growth factor c-sis,specific binding of 125I-GRP to membranes,"bombesin/GRP receptor [1]; addition at 15 nM, 0.5 nM 125I-GRP, 37° C., 10 minutes, None 305 ± 9",341 ± 9 fmole/mg protein
same,"125I-GRP affinity labelling of the Mr 75,000-85,000 protein","Mr 75,000-85,000 protein; addition at 15 nM, 0.5 nM 125I-GRP, 37° C., 10 minutes, None 100",104 ± 1 % of maximum
"CSCC[C@H](NC(=O)[C@H](CC(C)C)NC(=O)CNC(=O)[C@H](Cc1ccccc1)NC(=O)[C@H](Cc1ccccc1)NC(=O)[C@H](CCC(N)=O)NC(=O)[C@H](CCC(N)=O)NC(=O)[C@@H]1CCCN1C(=O)[C@H](CCCCN)NC(=O)[C@@H]1CCCN1C(=O)[C@@H](N)CCCNC(=N)N)C(N)=O [substance P, Arg-Pro-Lys-Pro-Gln-Gln-phe-phe-Gly-Leu-Met-NH2]",specific binding of 125I-GRP to membranes,bombesin/GRP receptor [1]; [8],305 ± 4 fmole/mg protein
same,remaining activity at 1 µM,"Mr 75,000-85,000 protein; 10 min, addition at 1μM, 0.5 nM 125I-GRP, 37° C., 10 minutes, None 100, read-out: 125I-GRP affinity labelling of the Mr 75,000-85,000 protein",93 ± 2%
same,inhibition of binding of [125I]GRP to Swiss 3T3 cells,bombesin/GRP receptor [5],neither inhibits
EGF: epidermal growth factor,specific binding of 125I-GRP to membranes,"bombesin/GRP receptor [1]; addition at 40 nM, 0.5 nM 125I-GRP, 37° C., 10 minutes, None 305 ± 9",305 ± 6 fmole/mg protein
same,"125I-GRP affinity labelling of the Mr 75,000-85,000 protein","Mr 75,000-85,000 protein; addition at 40 nM, 0.5 nM 125I-GRP, 37° C., 10 minutes, None 100",108 ± 1 % of maximum
"CC(C)C[C@H](NC(=O)[C@H](CC(C)C)NC(=O)[C@@H](Cc1c[nH]c2ccccc12)NC(=O)[C@H](Cc1ccccc1)NC(=O)[C@@H](Cc1c[nH]c2ccccc12)NC(=O)[C@H](CCC(N)=O)NC(=O)[C@@H](Cc1ccccc1)NC(=O)[C@@H]1CCCN1C(=O)[C@H](CCCCN)NC(=O)[C@@H]1CCCN1C(=O)[C@H](N)CCCN=C(N)N)C(N)=O [antagonist D, D-Arg-Pro-Lys-Pro-D-Phe-Gln-D-Trp-Phe-D-Trp-Leu-Leu-NH2] (H-[dR]PKP[dF]Q[dW]F[dW]LL-NH2)",IC50,bombesin/GRP receptor [1]; [6],7 µM
vasoactive intestinal peptide [VIP],specific binding of 125I-GRP to membranes,bombesin/GRP receptor [1]; [8],353 ± 10 fmole/mg protein
"C[C@H](N)C(=O)NCC(=O)N[C@H]1CSSC[C@@H](C(=O)O)NC(=O)[C@H](CO)NC(=O)[C@H]([C@@H](C)O)NC(=O)[C@H](Cc2ccccc2)NC(=O)[C@H]([C@@H](C)O)NC(=O)[C@H](CCCCN)NC(=O)[C@H](Cc2c[nH]c3ccccc23)NC(=O)[C@H](Cc2ccccc2)NC(=O)[C@H](Cc2ccccc2)NC(=O)[C@H](CC(N)=O)NC(=O)[C@H](CCCCN)NC1=O [Somatostatin, somatostatin]",specific binding of 125I-GRP to membranes,bombesin/GRP receptor [1]; [8],308 ± 8 fmole/mg protein
"CCCC(=O)O[C@@H]1[C@@H](C)[C@@]2(O)[C@@H](C=C(CO)C[C@]3(O)C(=O)C(C)=C[C@@H]23)[C@@H]2C(C)(C)[C@]12OC(=O)CCC [PBt2, phorbol 12,13-dibutyrate]",specific binding of 125I-GRP to membranes,"bombesin/GRP receptor [1]; addition at 400 nM, 0.5 nM 125I-GRP, 37° C., 10 minutes, None 305 ± 9",305 ± 9 fmole/mg protein
same,"125I-GRP affinity labelling of the Mr 75,000-85,000 protein","Mr 75,000-85,000 protein; addition at 400 nM, 0.5 nM 125I-GRP, 37° C., 10 minutes, None 100",111 ± 2 % of maximum
